# Measured values as given in patent publication US20200339544A1 (JOINT STOCK COMPANY "BIOCAD", priority 2017, published 2020).
# pIC50: −log10 of the molar value.
# Legend:
# [1] = Chemical stability in human blood plasma; format: in vitro ADME; conditions: pooled human blood plasma; 10 μm; 4 hours at 37° C.; substance amount remaining
# Procedure, shortened: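 Pooled plasma from ten healthy donors was spiked to 10 μM from a 10 mM DMSO stock and held 4 h at 37 °C. After acetonitrile protein precipitation, HPLC peak areas before and after incubation gave the percentage of compound remaining.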
# [2] = target: T1, WT EGFR (Wild-Type EGFR) (Homo sapiens, UniProt P00533); assay: Inhibition of WT EGFR kinase activity (ADP-Glo); format: biochemical
# T1 construct: purchased SignalChem
# Procedure, shortened: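 Recombinant WT or double-mutant EGFR was incubated with a solution of 0.5 mg/mL peptide substrate and 50 μM ATP for 180 minutes at 37° C. Kinase activity was detected by ADP-Glo luminescence. IC50 values came from a four-parameter logistic fit.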
# [3] = General cytotoxicity on HepG2 cells; format: cell-based; conditions: human; general cytotoxicity, HepG2 cells, 72 hours, average of several tests
# Procedure, shortened: (§1)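 HepG2 cells seeded at 2*10^4 cells per well and compounds added in DMEM with 2% FBS for 72 h at 37 °C. Viability read with Alamar Blue and CC50 derived as for IC50. Therapeutic index taken as HepG2 CC50 over H1975 IC50.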
# [4] = test system: HepG2 cells; assay: General cytotoxicity on HepG2 cells; format: cell-based; conditions: therapeutic index, CC50 HepG2 / IC50 H1975
# Procedure, shortened: as §1
# [5] = Enzyme stability in human liver S9 fractions; format: in vitro ADME; conditions: 0.5 mg/mL pooled human liver S9 fractions; 10 μM compound; 37° C.; pH 7.4; read-out: Stability in liver S9 fractions, Clint
# Procedure, shortened: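 Compound at 10 μM was incubated at 37 °C with 0.5 mg/mL pooled human liver S9, 2 mM β-NAD and 4 mM MgCl2 in 0.1 M sodium phosphate, pH 7.4, then quenched with acetonitrile and analysed chromatographically. T½ and CLint were derived from the slope of log peak area versus time.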
# [6] = test system: HCC827 (lung adenocarcinoma, SM, exon19delE746-A750); assay: Antiproliferative activity on HCC827 cells (Alamar Blue); format: cell-based; conditions: Homo sapiens, antiproliferative test
# Procedure, shortened: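 HCC827 cells (EGFR exon19del E746-A750), 10×10^3/well, attached 16–18 h, then exposed to compounds for 72 h at 37 °C in RPMI-1640 with 2% FBS, ≤1% DMSO. Viability by Alamar Blue fluorescence (ex 540/em 590 nm) after 3–5 h; IC50 by four-parameter logistic fit.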
# T1 sequence (P00533 25-1210): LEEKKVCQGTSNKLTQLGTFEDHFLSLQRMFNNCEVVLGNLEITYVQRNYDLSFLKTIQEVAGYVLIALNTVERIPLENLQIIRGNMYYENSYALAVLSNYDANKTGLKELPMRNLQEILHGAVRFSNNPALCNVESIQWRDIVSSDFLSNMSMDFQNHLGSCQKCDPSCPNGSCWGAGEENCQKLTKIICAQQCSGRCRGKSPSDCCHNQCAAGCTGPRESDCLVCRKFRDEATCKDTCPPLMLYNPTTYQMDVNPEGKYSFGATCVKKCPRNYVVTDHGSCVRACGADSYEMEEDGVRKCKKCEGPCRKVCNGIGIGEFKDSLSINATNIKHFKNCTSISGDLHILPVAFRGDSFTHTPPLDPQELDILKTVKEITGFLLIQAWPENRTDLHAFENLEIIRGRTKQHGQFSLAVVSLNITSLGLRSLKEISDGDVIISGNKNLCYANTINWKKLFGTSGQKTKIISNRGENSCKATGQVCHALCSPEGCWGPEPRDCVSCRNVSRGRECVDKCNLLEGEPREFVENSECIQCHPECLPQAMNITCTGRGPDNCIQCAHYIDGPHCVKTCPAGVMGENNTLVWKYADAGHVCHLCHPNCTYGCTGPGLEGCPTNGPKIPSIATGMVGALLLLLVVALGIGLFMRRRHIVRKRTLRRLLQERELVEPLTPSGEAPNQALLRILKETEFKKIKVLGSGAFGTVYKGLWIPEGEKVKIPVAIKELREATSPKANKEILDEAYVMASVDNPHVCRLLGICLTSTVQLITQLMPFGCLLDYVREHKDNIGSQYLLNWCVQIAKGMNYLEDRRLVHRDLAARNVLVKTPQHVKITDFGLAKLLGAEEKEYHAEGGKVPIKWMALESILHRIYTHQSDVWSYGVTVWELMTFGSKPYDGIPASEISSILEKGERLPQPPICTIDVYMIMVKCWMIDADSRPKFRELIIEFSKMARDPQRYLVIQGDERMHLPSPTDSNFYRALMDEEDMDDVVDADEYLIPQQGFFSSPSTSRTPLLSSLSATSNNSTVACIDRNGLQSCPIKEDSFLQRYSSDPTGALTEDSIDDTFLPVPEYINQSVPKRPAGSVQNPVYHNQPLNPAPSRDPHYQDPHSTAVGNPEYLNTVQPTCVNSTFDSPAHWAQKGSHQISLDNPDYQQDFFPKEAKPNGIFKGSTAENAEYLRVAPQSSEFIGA
Structure (SMILES),"Stability in blood plasma, % [1]",pIC50 [2],CC50 at 72 h [3],"TI, CC50/IC50 [4]",Intrinsic clearance in human liver S9 fractions at 10 µM [5],pIC50 [6]
"C=CC(=O)Nc1cc(Nc2nccc(C(=O)c3cc4ccccc4n3C)n2)c(OC)cc1N(C)CCN(C)C [EGFR_3365_94, N-(2-((2-(dimethylamino)ethyl) (methyl)amino)-4-methoxy-5-((4-(1-methyl-1H-indole-2-carbonyl)pyrimidin-2-yl)amino)phenyl)acrylamide]",83.3%,7.59,12000 nM,1801,–,–
"C=CC(=O)Nc1cc(Nc2nccc(C(=O)c3ccc(OC)cc3OC)n2)c(OC)cc1N(C)CCN(C)C [EGFR_3365_69, N-(5-((4-(2,4-dimethoxybenzoyl)pyrimidin-2-yl)amino)-2-((2-(dimethylamino)ethyl)(methyl)amino)-4-methoxyphenyl)acrylamide]",100.0%,7.63,51900 nM,6549,14.4 µL/min/mg,8.61
"C=CC(=O)Nc1cc(Nc2nccc(C(=O)c3ccc(OCC)cc3OCC)n2)c(OC)cc1N(C)CCN(C)C [EGFR_3365_68, N-(5-((4-(2,4-diethoxybenzoyl)pyrimidin-2-yl)amino)-2-((2-(dimethylamino)ethyl) (methyl)amino)-4-methoxyphenyl)acrylamide]",78.4%,7.03,28600 nM,825,14.5 µL/min/mg,7.72
"C=CC(=O)Nc1cc(Nc2nccc(C(=O)c3ccc(Oc4ccccc4)cc3)n2)c(OC)cc1N(C)CCN(C)C [EGFR_3365_17, N-(2-((2-(dimethylamino)ethyl)(methyl)amino)-4-methoxy-5-((4-(4-phenoxybenzoyl)pyrimidin-2-yl)amino)phenyl)acrylamide]",97.0%,6.77,6320 nM,16,10.9 µL/min/mg,7.38
"C=CC(=O)Nc1cc(Nc2cc(C(=O)c3ccccc3)ccn2)c(OC)cc1N(C)CCN(C)C [EGFR_3365_3, N-(5-((4-benzoylpyridin-2-yl)amino)-2-((2-(dimethylamino)ethyl)(methyl)amino)-4-methoxyphenyl)acrylamide]",82.1%,7.12,15200 nM,341,–,8.64
"C=CC(=O)Nc1cc(Nc2nccc(C(=O)c3ccc(OCCC)cc3)n2)c(OC)cc1N(C)CCN(C)C [EGFR_3365_30, N-(2-((2-(dimethylamino)ethyl)(methyl)amino)-4-methoxy-5-((4-(4-propoxybenzoyl)pyrimidin-2-yl)amino)phenyl)acrylamide]",–,6.21,10900 nM,666,1.2 µL/min/mg,8.70
"C=CC(=O)Nc1cc(Nc2cc(C(=O)c3ccc(N4CCCC4)cc3)ccn2)c(OC)cc1N(C)CCN(C)C [EGFR_3365_56, N-(2-((2-(dimethylamino)ethyl)(methyl)amino)-4-methoxy-5-((4-(4-(pyrrolidin-1-yl)benzoyl)pyridin-2-yl)amino)phenyl)acrylamide]",83.2%,6.92,9510 nM,325,9.1 µL/min/mg,7.52
"C=CC(=O)Nc1cc(Nc2nccc(C(=O)c3ccc(N4CCC(N)CC4)cc3)n2)c(OC)cc1N(C)CCN(C)C [EGFR_3365_121, N-(5-((4-(4-(4-aminopiperidin-1-yl)benzoyl)pyrimidin-2-yl)amino)-2-((2-(dimethylamino)ethyl)(methyl)amino)-4-methoxyphenyl)acrylamide]",98.3%,7.67,75100 nM,17832,1.4 µL/min/mg,7.82
"C=CC(=O)Nc1cc(Nc2cc(C(=O)c3ccc(N4CCN(C)CC4)cc3)ccn2)c(OC)cc1N(C)CCN(C)C [EGFR_3365_55, N-(2-((2-(dimethylamino)ethyl)(methyl)amino)-4-methoxy-5-((4-(4-(4-methylpiperazin-1-yl)benzoyl)pyridin-2-yl)amino)phenyl)acrylamide]",84.8%,7.12,13300 nM,63,5 µL/min/mg,7.70
"C=CC(=O)Nc1cc(Nc2nccc(C(=O)c3ccc(OCC)cc3)n2)c(OC)cc1N(C)CCN(C)C [EGFR_3365_29, N-(2-((2-(dimethylamino)ethyl)(methyl)amino)-5-((4-(4-ethoxybenzoyl)pyrimidin-2-yl)amino)-4-methoxyphenyl) acrylamide]",79.7%,6.70,30600 nM,1135,–,8.21
"C=CC(=O)Nc1cc(Nc2cc(C(=O)c3ccc(OCCC)cc3)ccn2)c(OC)cc1N(C)CCN(C)C [EGFR_3365_50, N-(2-((2-(dimethylamino)ethyl)(methyl)amino)-4-methoxy-5-((4-(4-propoxybenzoyl)pyridin-2-yl)amino)phenyl)acrylamide]",89.0%,7.49,12400 nM,262,1.1 µL/min/mg,7.57
"C=CC(=O)Nc1cc(Nc2nccc(C(=O)c3ccc(OC)cc3)n2)c(OC)cc1N(C)CCN(C)C [EGFR_3365_28, N-(2-((2-(dimethylamino)ethyl)(methyl)amino)-4-methoxy-5-((4-(4-methoxybenzoyl)pyrimidin-2-yl)amino)phenyl)acrylamide]",86.2%,6.89,31400 nM,1836,–,7.82
"C=CC(=O)Nc1cc(Nc2cc(C(=O)c3ccc(OC)cc3)ccn2)c(OC)cc1N(C)CCN(C)C [EGFR_3365_51, N-(2-((2-(dimethylamino)ethyl)(methyl)amino)-4-methoxy-5-((4-(4-methoxybenzoyl)pyridin-2-yl)amino)phenyl)acrylamide]",–,7.29,20900 nM,620,16.2 µL/min/mg,8.07
"C=CC(=O)Nc1cc(Nc2nccc(C(=O)c3ccc(OC)cc3OCCC)n2)c(OC)cc1N(C)CCN(C)C [EGFR_3365_102, N-(2-((2-(dimethylamino)ethyl)(methyl)amino)-4-methoxy-5-((4-(4-methoxy-2-propoxybenzoyl)pyrimidin-2-yl)amino)phenyl)acrylamide]",82.7%,6.69,27500 nM,342,21.9 µL/min/mg,–
"C=CC(=O)Nc1cc(Nc2nccc(C(=O)c3ccc(OC(C)C)cc3)n2)c(OC)cc1N(C)CCN(C)C [EGFR_3365_31, N-(2-((2-(dimethylamino)ethyl)(methyl)amino)-5-((4-(4-isopropoxybenzoyl)pyrimidin-2-yl)amino)-4-methoxyphenyl) acrylamide]",93.1%,6.88,9490 nM,1293,–,8.08
"C=CC(=O)Nc1cc(Nc2nccc(C(=O)c3ccccc3Br)n2)c(OC)cc1N(C)CCN(C)C [EGFR_3365_12, N-(5-((4-(2-bromobenzoyl)pyrimidin-2-yl)amino)-2-((2-(dimethylamino)ethyl) (methyl)amino)-4-methoxyphenyl)acrylamide]",76.3%,6.41,22600 nM,1051,–,7.69
"C=CC(=O)Nc1cc(Nc2cc(C(=O)c3ccc(N(C)C)cc3)ccn2)c(OC)cc1N(C)CCN(C)C.O=C(O)C(F)(F)F [EGFR_3365_4, N-(5-((4-(4-(dimethylamino)benzoyl)pyridin-2-yl)amino)-2-((2-(dimethylamino)ethyl) (methyl)amino)-4-methoxyphenyl)acrylamide 2,2,2-trifluoroacetate]",–,6.64,14800 nM,419,0.9 µL/min/mg,7.82
"C=CC(=O)Nc1cc(Nc2cc(C(=O)c3ccc(OCC)cc3)ccn2)c(OC)cc1N(C)CCN(C)C [EGFR_3365_52, N-(2-((2-(dimethylamino)ethyl)(methyl)amino)-5-((4-(4-ethoxybenzoyl)pyridin-2-yl)amino)-4-methoxyphenyl) acrylamide]",–,7.17,15600 nM,237,16.6 µL/min/mg,7.65
